Experimental data taken from patent US20230265405A1, “ENGINEERED NUCLEASES AND METHODS OF USE THEREOF” (Massachusetts Institute of Technology, priority 2022, published 2023).
Read-outs that look alike come from different tables or passages of the source.

What was measured:
Format in all cases: cell-based, human
GFP transgene = assay: Prime editing GFP to BFP conversion with pegRNA and nicking gRNA, flow cytometry
Description: (§1) We tested these engineered variants by applying prime editing with a pegRNA and nicking gRNA to convert a GFP transgene to BFP, similar to the HDR assay.
(§2) We next examined whether vPE produces precise editing by again applying prime editing to convert a GFP transgene to BFP. […] As prime editors can produce indels without the prime edit, with the prime edit, or with the prime edit and pegRNA scaffold incorporation (Chen et al. Cell 184, 5635-5652.e29 (2021)), we further determined how these different indel types were affected.
Flow cytometry analysis was performed on an LSR Fortessa analyzer and data was collected using FACSDiva (BD Biosciences). Cells were first gated comparing SSC-A and FSC-A, then SSC-H and SSC-W, then FSC-H and FSC-W parameters to select for single cells. To assess editing frequencies, cells were gated for GFP (488 nm laser excitation, 530/30 nm filter detection) and BFP (405 nm laser excitation, 450/50 nm filter detection). To profile cell cycle stage, cells were gated for propidium iodide (561 nm laser excitation, 610/20 nm filter detection) and Alexa Fluor 647 (640 nm laser excitation, 670/30 nm filter detection). Flow cytometry data were analyzed using FlowJo (FlowJo).

[1] = test system: several loci in HEK293T cells; assay: Prime editing with pegRNAs without nicking gRNAs (single-nicking, PE2) at several loci, deep sequencing; settings: for indel frequencies: all loci; for precise editing frequencies (mean): mean across several loci; for precise editing frequencies: range across several loci
Experimental: Considering this broad suppression of all indel types, we also studied whether vPE reduced indel frequency at several loci in HEK293T cells using pegRNAs without nicking gRNAs (single-nicking prime editing, or PE2).
(§3) Cells were seeded in the maintenance medium without Pen-Strep into 24-well plates at 100,000 cells/well or 48-well plates at 50,000 cells/well. […] Transfections of HEK293T with prime editing vectors were carried out 24 hrs after seeding using 475 ng PE expression vector, 114 ng pegRNA expression vector, and 144 ng nicking gRNA expression vector (for PE3) formulated with 1.47-1.83 μL (equal volume/DNA) Lipofectamine 2000 at a total volume of 58.9-73.3 μL (equal DNA concentration) in OptiMEM I (ThermoFisher) per well for 24-well plates, or half these volumes for 48-well plates. For sequencing assays, genomic DNA was extracted 72 hrs after transfection using QuickExtract (Epicentre). For flow cytometry assays, cells were transferred to 6-well plates 72 hrs after transfection, split 7 days after transfection, and harvested 10 days after transfection in PBS with 5% FBS (ThermoFisher). Repair templates, listed in Supplementary Table 4, were synthesized by IDT.
(§4) The targeted loci were amplified from extracted genomic DNA by PCR using Herculase II polymerase (Agilent). The PCR primers included Illumina sequencing handles as well as replicate-specific barcodes. These PCR products were then tagged with sample-specific barcodes and sequenced on an Illumina MiSeq. Primers, listed in Supplementary Table 5, were synthesized by IDT.
(§5) To measure editing outcomes, the high-throughput sequencing data were analyzed using CRISPResso2 25. Total editing rates were quantified as the fraction of edited reads out of total sequencing reads. Indel rates were quantified as the fraction of reads containing indels out of total sequencing reads. Precise editing rates were quantified as the fraction of reads containing a perfect match to the expected edit out of total sequencing reads. Frequencies of specific indel sizes were quantified as the fraction of reads containing these sizes out of all edited reads. Depletion of specific indel sizes by templated repair was quantified as the fractional reduction in the frequency of that indel size, comparing frequencies for when a template was present versus absent. Mean indel sizes were calculated as the mean of the absolute values of indel sizes weighted by their indel fractions.

[2] = test system: several loci in HEK293T cells; assay: Prime editing with pegRNAs and nicking gRNAs (double-nicking, PE3) at several loci, deep sequencing; settings: for precise editing frequencies (mean): mean across several loci; for precise editing frequencies: range across several loci
Experimental: We compared PEmax and PE for creating small edits at the EMX1, GFP, KRAS, and MYC loci in HEK293T cells.
as §2, §3, §4, §5

[3] = test system: KRAS locus in HEK293T cells; assay: Prime editor variant screen with pegRNA and nicking gRNA (PE3), deep sequencing
Experimental: To measure precise editing and indel frequencies for these mutants, we combined them with a pegRNA and nicking gRNA (double-nicking prime editing, or PE3) that produces a small sequence replacement at the KRAS locus in HEK293T cells by prime editing and analyzed alterations using deep sequencing of the amplified locus.
as §1
as §3, with “Repair templates, listed in Supplementary Table 4, were synthesized by IDT.” left out

[4] = vPE versus PE, range across loci

| Substance | indels and precise editing, GFP to BFP conversion (GFP transgene) | indels and precise editing, GFP to BFP conversion (GFP transgene; listed as K848A-H982A) | indel types [1] | indel frequencies [1] | precise editing frequencies (mean) [1] | precise editing frequencies [1] | suppression of indel frequency (mean) ([1]; vPE versus PE, mean) | suppression of indel frequency [1, 4] | indels resulting from prime editing ([2]; all loci) | frequencies of each indel type ([2]; indels without prime edit, with prime edit, with pegRNA scaffold incorporation) | precise editing frequencies (mean) [2] | precise editing frequencies [2] | suppression of indel frequency (mean) ([2]; vPE versus PE, mean) | suppression of indel frequency [2, 4] | precision, rank among PE variants [3] | precise editing frequency and indel frequency relative to PE ([3]; dual-mutation variants, KRAS locus) |
| --- | --- | --- | --- | --- | --- | --- | --- | --- | --- | --- | --- | --- | --- | --- | --- | --- |
| vPE: PE prime editor with K848A-H982A in the Cas9 nickase, SEQ ID NO: 294 | efficient precise gene conversion with limited indels | nearly eliminated indels while promoting precise editing | reductions in all indel types | lower indel frequencies | 90.5% | 84.2-98.4% | 1.7 fold | 1.1- to 2.5 fold | nearly eliminated indels | decreasing the frequencies of each indel type | 82.5% | 57.7-97.4% | 4.7 fold | 2.0- to 13.0 fold | most precise variant | increased precise editing frequency and reduced indel frequency |
| PE: Prime editor: variant of PEmax with the R221K and N394K mutations reverted; SEQ ID NO: 293 (nucleic acid 286) | – | – | – | fairly low indel frequencies | 82.7% | 72.3-98.2% | – | – | – | – | 49.1% | 14.7-69.8% | – | – | – | – |
